For the test, the system named is E. faecalis V583 VRE. Type of test: cell-based, Enterococcus faecalis. From the text: The insert depicts the clot model.
E. faecalis V583 (VRE) is an example of a vancomycin resistant E. faecalis that was announced by the Centers for Disease Control (CDC) as one of the major bacterial threats today.

On to `CN[C@H](CC(C)C)C(=O)N[C@H]1C(=O)N[C@@H](CC(N)=O)C(=O)N[C@H]2C(=O)N[C@H]3C(=O)N[C@H](C(=O)N[C@H](C(=O)O)c4cc(O)cc(O)c4-c4cc3ccc4O)[C@H](O)c3ccc(c(Cl)c3)Oc3cc2cc(c3O[C@@H]2O[C@H](CO)[C@@H](O)[C@H](O)[C@H]2O[C@H]2C[C@](C)(N)[C@H](O)[C@H](C)O2)Oc2ccc(cc2Cl)[C@H]1O` [vancomycin], for which the “colony growth on agar plate from seeded culture aliquots” value (24 hours incubation in 37 °C) is given as “growth was observed”. The “effect on growth and viability” value (EFLK1 2.5×10^7 phages/ml, vancomycin 15 μg/ml) was “somewhat affects its growth and viability”.
